For experiment [1], the system named is HLA-A2/K^b transgenic mice. Put plainly: Immunization of HLA-A2.1/Kb transgenic mice with peptide-pulsed DCs, IFN-γ production by T cells. In kind it is in vivo, mouse. The settings on record: 24 h. From the text:
Transgenic Mice. HLA-A2.1/K^b transgenic mice were kindly provided by Dr. L. Sherman (Scripps Laboratories, San Diego, Calif.). Transgenic mice express the product of the HLA-A2.1/Kb chimeric gene in which the alpha-3 domain of the heavy chain is replaced by mouse H-2/K^b domain, but the HLA-A2.1 alpha-1 and alpha-2 domains are unaltered (A. Vitiello et al., 1991, J. Exp. Med. 173:1007–1015; V. H. Engelhard et al., 1991, J. Immunol. 46:1226–1232).
In Vivo Immunization and Murine T cell Cultures. Three groups of HLA-A2.1/K^b transgenic mice (three mice per group) were immunized s.c. (subcutaneously) in the base of the tail with PSA-3 peptide-pulsed HLA-A2.1/K^b DC, PSA-3A peptide-pulsed DCs from HLA-A2.1/K^b transgenic mice, or DCs only. Peptides were used at a concentration of 50 μg/ml and DCs were used at 1×10^6 cell/mouse/injection. A total of three injections were given to each animal, 2 weeks apart. Mice injected with DCs only were used as controls. Mice were sacrificed 7 days after the last injection, and spleen cells were restimulated in vitro with 25 μg/ml of PSA-3 or PSA3A peptide with irradiated syngeneic spleen cell for 6 days. The cytokine production of these bulk cultures was tested. Peptide-pulsed Jurkat A2 (JA2 K^b) cells were used as stimulator cells. Jurkat 0201 K^b cells are stable transfectants of the human T cell leukemia line, Jurkat, which express the product of HLA-A0201K^b climeric gene (L. A. Sherman et al., 1992, Science 258:815–818).
The HLA-A2/K^b transgenic mouse has been previously reported to aid in the determination of the immunogenicity of HLA-A2 peptides for humans. This in vivo system was thus employed to further analyze and compare the immunogenicity of the PSA-3A peptide with that of the native PSA-3 peptide. DCs from the HLA-A2/K^b transgenic mice were pulsed with either the PSA-3 or the PSA-3A peptide and used to vaccinate HLA-A2b mice. DCs alone (no peptide) were also used as a control vaccine. After three vaccinations at 2-week intervals, T cells were isolated from splenocytes obtained 2 weeks after the last vaccination. The T cells were then incubated with Jurkat A2/K^b cells pulsed with the PSA-3 peptide, the PSA-3A peptide, or no peptide, and production of INF-γ was measured from supernatants after 24 h.

Experiment [2] deals with DCs. Put plainly: IL-12 production by peptide-pulsed DCs in the presence of T cells. In kind it is cell-based, human. As to the method:
It has been previously shown that the activation of T cells by peptidepulsed DCs is related to the level of IL-12 production by the DCs. Studies were therefore conducted to determine the levels of IL-12 production by DCs pulsed with PSA-3 and PSA-3A peptides in the presence of T cells. […] When DCs pulsed with the PSA3A peptide were incubated with both T cell lines, the DCs incubated with the T-PSA-3A line again produced higher levels of IL-12 than those peptide-pulsed DCs incubated with the T cell line T-PSA-3 (Table 3).

The subject of experiment [3] is T-PSA-3A cells. Nature of the experiment: IFN-γ production by T cell line stimulated with peptide-pulsed DCs (ELISA). In kind it is cell-based, human. The settings on record: peptide 25 μg/ml. As to the method: (§1) Detection of Cytokines. Supernatant of T cells exposed for 24 h to peptide-pulsed infected DC, rV-PSA infected DC, or rV-PSA-3A infected DC, in IL-2-free medium at various responder: stimulator ratios, were screened for secretion of IFN-γ using an ELISA kit (R & D Systems, Minneapolis, Minn.). The results were calculated as pg/ml. A Cytometric Bead Array (CBA) system (BD PharMingen, San Diego, Calif.) was also used to determine the secretion of multiple cytokines by specific T cell lines. The CBA system uses the fluorescence detection by flow cytometry to measure soluble analytes in a particle-based immunoassay. The BD human Th1/Th2 cytokine CBA Kit was employed to measure IL-2, IL-4, IL-5, IL-10, TNF-α, and IFN-γ protein levels in a single sample. The cytokine capture beads were mixed with PE-conjugated detection antibodies and then incubated with recombinant cytokine standards or test samples to form sandwich complexes. The samples results were generated in graphical and tabular format using BD CBA analysis software. The results were calculated as pg/ml.
Table 2: Production of IFN-γ by a T cell line stimulated with PSA-3 or agonist PSA-3A peptides. The PSA-specific T cell line T-PSA-3A was used as effector cells at IVS-3. T-PSA-3A cells were stimulated with irradiated HLA-A2 positive allogeneic DCs either pulsed with PSA-3 or PSA-3A peptide at a concentration of 25 μg/ml and an effector-to-APC ratio of 10:1. After 24-h culture supernatants were collected and screened for the secretion of IFN-γ. APC=antigen […].
In general terms: An ELISA detects its analyte on a solid surface through an enzyme-linked reagent.

For experiment [4], the system named is CD8+ cells (T-PSA-3). Put plainly: Apoptosis (TUNEL) assay of peptide-stimulated T cells. To be noted: T cells stimulated with peptide-pulsed autologous B cells, IVS-5, TUNEL. In kind it is cell-based, human. From the text: FIGS. 5A–5C. DNA fragmentation in peptide stimulated T cells using the TUNEL assay. Apoptosis of CD8^+ cells activated by PSA peptide pulsed autologous B cells. FIG. 5A: T-PSA-3 cells stimulated with B cells with no peptide; FIG. 5B: T-PSA-3 cells stimulated with B cells pulsed with PSA-3 peptide; FIG. 5C: T-PSA-3 cells stimulated with B cells pulsed with PSA-3A peptide. Numbers in each histogram indicate percent of apoptotic cells (cells above line) as described in the Examples section.
Apoptosis Assay. T cells were incubated for 48 h in the presence of peptide-pulsed autologous B cells as described in the IVS procedure, above, and replated to 96-well plates for 24 h. Apoptosis was analyzed using the terminal deoxynucleotidyl transferase-mediated nick-end labeling (TUNEL) assay (Y. Gavrieli et al., 1992, J. Cell Biol. 119:493–501).

The test system of experiment [5] is T-PSA-3 cells. Put plainly: Cytometric Bead Array cytokine production by peptide-stimulated T cells. The class given is cell-based, human. To be noted: T-PSA-3 + peptide-pulsed autologous B cells, 24 h supernatant. As to the method: as §1
The cytokine profile of T cells stimulated with APCs pulsed with either the PSA-3 or the PSA-3A peptide was then analyzed. The T cell line derived using the PSA-3 peptide was used in these studies, and the APCs used were autologous B cells. A Cytometric Bead Array (CBA) assay was used for analysis (see Examples section) using supernatant fluids obtained 24 h after stimulation. FIGS. 6A–6C illustrate […] of the 10 internal standards used for the calibration of the results obtained in this assay. FIGS. 6D–6F show the levels of each of six cytokines produced by T cells stimulated with APCs pulsed with no peptide, PSA-3A peptide, and PSA-3 peptide, respectively. […] The results obtained for IL-5 will be discussed below (Conclusions section).

Experiment [6] deals with T1, HLA-A2 (Homo sapiens, UniProt P04439, D140Y/D185E/D98H/E176V/E277Q/G131W/G231S/I119V/I121R/I166T/I218V/L300P/L318F/N151K/N90K/P208A/P217A/Q86G/Q94H/R138H/R169H/T345S).
T1 construct: endogenous in cells; host or cells: T2A2 / 174CEM-T2 (T2) transport deletion mutant cell line
Put plainly: Peptide binding to HLA-A2 on T2A2 cells (flow cytometry). To be noted: peptide 0 to 50 μg/ml, FIG. 1A. As to the method:
Single-color flow cytometric analysis. The method for single-color flow cytometric analysis was described previously (F. Guadagni et al., 1990, Cancer Res. 50:6248–6255). Briefly, cells were washed three times with cold Ca^2+ and Mg^2+-free DPBS and then stained for 1 h with mAb against HLA-A2 (A2,69, One Lambda, Inc., Canoga Park, Calif.), using 10 μg of the 1× working dilution per 10^6 cells. Mineral oil plasmacytoma-104E (Cappel/Organon Teknika Corp., West Chester, Pa.) was used as an isotype control. The cells were washed three times and incubated with a 1:100 dilution of fluorescein isothiocyanate (FITC)-labeled goat anti-mouse immunoglobulin (IgG) (Kirkegaard and Perry Laboratories, Gaithersburg, Md.). The cells were immediately analyzed using a Becton Dickinson FACScan equipped with a blue laser with an excitation of […] at 488 nm. Data were gathered from 10,000 live cells, stored and used to generate results.
Peptide Binding to HLA-A2. […] Briefly, 1×10^6 cells in serum-free Iscove's modified Dulbecco's complete medium were incubated with peptides at a concentration of 50 μg/ml in 24 well culture plates at 37° C. in 5% CO2. Flow cytometry for peptide binding was performed using T2 cells and single-color analysis. After cells were washed three times in DPBS, as described above, they were incubated for 1 h with HLA-A2 specific MAb (One Lambda, Inc.) using 10 μg of a 1× working dilution per 10^6 cells. UPC-10 (Cappel/Organon Teknika) was used as isotype control. The cells were washed three times and incubated with 1:100 dilution of FITC-labeled anti-mouse IgG (Becton Dickinson). Analysis was conducted with the FACScan, as described above. Cells were maintained on ice during all cell preparation and staining.
The four analogs were then tested for binding to the HLA-A2 positive T2A2 cells as described in the Examples section. The NCA peptide was previously shown to not bind to HLA-A2, and was used as a negative […] control. Peptides were added to T2A2 cells at concentrations of 0 to 50 μg/ml.
A general note: In flow cytometry, cells or beads pass a laser one at a time.

“And” between values parts separate entries of the source, which are not always exact repeats. Identical values can stand only once. Bounds are passed on as bounds.

Regarding “VISNDVCAQV (SEQ ID NO:1) [PSA-3, reference compound]”, the “Production of IFN-γ” value in experiment [1] (label = peptide pulsed on immunizing DCs, Jurkat A2/K^b cells pulsed with PSA-3A (25 μg/ml)) is on record as 1,969.0 pg/ml/10^6 cells; in experiment [1] (label = peptide pulsed on immunizing DCs, Jurkat A2/K^b cells with no peptide) it was under 37.0 pg/ml/10^6 cells; in experiment [1] (label = peptide pulsed on immunizing DCs, T cells restimulated with Jurkat A2/K^b cells pulsed with PSA-3 (25 μg/ml)) it was 1,908.0 pg/ml/10^6 cells; in experiment [1] (mice immunized with DCs (no peptide), label = peptide pulsed on Jurkat A2/K^b cells) it was under 37.0 pg/ml/10^6 cells. Further, the “IL-12 PRODUCTION” value in experiment [2] (APC DC, T cell line T-PSA-3, peptide 25 μg/ml, 10:1, 24 h, IVS-4) was 5.0 pg/ml/5 × 10^5 DC; in experiment [2] (APC DC, T cell line T-PSA-3A, peptide 25 μg/ml, 10:1, 24 h, IVS-4), 10.5 pg/ml/5 × 10^5 DC; in experiment [2] (no APC, T cell line T-PSA-3, peptide 25 μg/ml, 24 h) it was under 0.6 pg/ml/5 × 10^5 DC; in experiment [2] (no APC, T cell line T-PSA-3A, peptide 25 μg/ml, 24 h), under 0.6 pg/ml/5 × 10^5 DC. For the same sequence, the “PRODUCTION OF IFN-γ” value in experiment [3] (APC DCs, T-PSA-3A T cells present, effector-to-APC 10:1, 24 h, IVS-3) is 280 pg/mL; in experiment [3] (APC DCs, no T cell, 24 h) it was under 15 pg/mL; in experiment [3] (no APC, T-PSA-3A T cells present, 24 h), under 15 pg/mL. In experiment [4], the “Apoptotic CD8+ cells” value was 4.9% and 4.5%. Further, the “Production of IL-4” value in experiment [5] is “Low or undetectable levels”. Further, the “Production of IL-10” value in experiment [5] is “Low or undetectable levels”. In experiment [5], the “Production of TNF-α” value is reported as “No TNF-α could be detected”.
On to YISNDVCAQV (SEQ ID NO:4) [Y154], for which, in experiment [6], the “Binding to HLA-A2 (relative fluorescence, MFI)” value is given as “higher levels than PSA-3”.
Regarding VISNDVCAQL (SEQ ID NO:2) [1–163], the “Binding to HLA-A2 (relative fluorescence, MFI)” value in experiment [6] was “no binding”.

The record behind these values is patent US7247615B2, “Peptide agonists of prostate-specific antigen and uses therefor” (priority 2001, dated 2007).
